The values below come from paper PMC5321741, “Arylmethylamino steroids as antiparasitic agents” (Nature Communications, 2017).

As usually defined, the IC50 is the concentration that gives 50% inhibition.

One data set has as its system parasitaemia. Details: method as in Baragana et al Nature, 2015,522,315. The note with it: at 0.57 mg/kg; ref Baragana et al Nature, 2015,522,315; cited from earlier work.
Data set [1] concerns hepatic cell line (HepG2). The note with it: cited from earlier work.
Data set [2] relates to adult Schistosoma mansoni. The note with it: no longer toxic at 1 μM; cited from earlier work.
Data set [3] concerns hepatic cell line (HepG2). Briefly: cytotoxicity on hepatic cell line (literature). The data set is classed as cell-based.

For `O=C(NCCN1CCCC1)c1cc(-c2ccc(CN3CCOCC3)cc2)nc2ccc(F)cc12` [DDD107498], in the data set with parasitaemia, the reduction in parasitaemia is on record as 90%.

`O=C(C1CCCCC1)N1CC(=O)N2CCc3ccccc3C2C1` (centres unmarked) [praziquantel]: the half-maximal inhibitory concentration (IC50) in data set [1] was 165 µM. The “concentration toxic for schistosomes in vitro” value in data set [2] was 5 to 10 µM. For the same molecule, the selectivity index in data set [3] (HepG2 IC50 with respect to adult worms treated in vitro with 5 µM) came to 33; in data set [3] (HepG2 IC50 with respect to adult worms treated in vitro with 10 µM), 16.5.
